According to BigSolDB 2.1:

C#CC(C)(C)NC(=O)c1cc(Cl)cc(Cl)c1
solubility (mole fraction)
Details | 278.15 K | 283.15 K | 288.15 K | 293.15 K | 298.15 K | 303.15 K | 308.15 K | 313.15 K | 318.15 K | 323.15 K
in cyclohexane | – | 0.000135 | 0.000185 | 0.000293 | 0.000425 | 0.000544 | 0.000704 | 0.00081 | 0.00101 | 0.00124
in ethanol | 0.0071 | 0.00834 | 0.00953 | 0.011 | 0.0131 | 0.0151 | 0.0174 | 0.0205 | 0.0242 | 0.0295
in isopropanol | 0.00219 | 0.00269 | 0.00351 | 0.00526 | 0.00705 | 0.00865 | 0.0112 | 0.0137 | 0.0171 | 0.023
in methanol | 0.00654 | 0.0077 | 0.00892 | 0.0101 | 0.0124 | 0.0145 | 0.017 | 0.0201 | 0.0236 | 0.0283
in toluene | 0.00179 | 0.00238 | 0.00298 | 0.00368 | 0.00467 | 0.00593 | 0.00735 | 0.00924 | 0.0113 | 0.0124
